Calls of active or inactive are those of the source.
Key:
[1] = target: T1, Endoribonuclease toxin MazF (Escherichia coli K-12, UniProt P0AE70); assay: MazEF toxin-antitoxin RNase activation – biochemical, fluorescence, single-stranded RNA substrate, SAR follow-up (AID 588603); type: functional
T1 sequence (P0AE70 whole entry): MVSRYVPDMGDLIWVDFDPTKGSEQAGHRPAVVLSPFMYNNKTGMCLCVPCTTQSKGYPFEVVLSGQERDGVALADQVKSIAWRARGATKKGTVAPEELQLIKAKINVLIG

[2] = target: T1, Endoribonuclease toxin MazF; assay: activation of MazEF endoribonuclease cleavage – biochemical, fluorescence, single-stranded RNA substrate, uHTS hits, dose response (AID 588481); type: functional
MEF = assay: SAR analysis of small molecule cytotoxicity of MazEF TA System activators in embryonic fibroblast (MEF) cells. [Related pubchem assays (depositor defined):AID504720, AID504743]; type: functional; conditions: Mus musculus
[3] = target: T1, Endoribonuclease toxin MazF; assay: SAR analysis of small molecule activators of the MazEF TA System via a fluorescence-based single-stranded RNase assay counterscreen. [Related pubchem assays (depositor defined):AID504720, AID504743]; type: functional
[4] = target: T1, Endoribonuclease toxin MazF; assay: substrate-only fluorescence increase artefacts – biochemical, single-stranded RNase substrate, counter-screen for MazEF activator project, dose response (AID 588502); type: functional
[5] = target: T2, Microphthalmia-associated transcription factor (Homo sapiens, UniProt O75030); assay: reducers of TRPM1 reporter luminescence, concentration series – cell-based, SK-MEL-5, cherry-picked, set 3, MITF inhibitor project, dose response (AID 493073); type: functional;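 further: SK-MEL-5 melanoma cells with luciferase driven by the MITF target TRPM1 promoter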
T2 sequence (O75030 whole entry): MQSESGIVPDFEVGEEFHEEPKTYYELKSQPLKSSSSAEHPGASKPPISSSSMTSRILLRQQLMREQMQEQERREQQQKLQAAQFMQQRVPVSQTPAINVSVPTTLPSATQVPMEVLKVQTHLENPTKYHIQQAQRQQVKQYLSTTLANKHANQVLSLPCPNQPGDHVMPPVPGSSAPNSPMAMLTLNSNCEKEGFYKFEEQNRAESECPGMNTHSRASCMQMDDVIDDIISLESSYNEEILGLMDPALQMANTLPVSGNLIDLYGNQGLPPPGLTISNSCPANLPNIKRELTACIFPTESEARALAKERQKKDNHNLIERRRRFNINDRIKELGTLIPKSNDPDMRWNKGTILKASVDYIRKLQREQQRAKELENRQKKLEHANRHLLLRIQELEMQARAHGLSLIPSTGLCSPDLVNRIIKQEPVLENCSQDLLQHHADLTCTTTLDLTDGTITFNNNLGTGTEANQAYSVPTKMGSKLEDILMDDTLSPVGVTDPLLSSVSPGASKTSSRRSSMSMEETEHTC

[6] = target: T3, Apoptotic protease-activating factor 1 (Homo sapiens, UniProt O14727); type: functional
T3 sequence (O14727 whole entry): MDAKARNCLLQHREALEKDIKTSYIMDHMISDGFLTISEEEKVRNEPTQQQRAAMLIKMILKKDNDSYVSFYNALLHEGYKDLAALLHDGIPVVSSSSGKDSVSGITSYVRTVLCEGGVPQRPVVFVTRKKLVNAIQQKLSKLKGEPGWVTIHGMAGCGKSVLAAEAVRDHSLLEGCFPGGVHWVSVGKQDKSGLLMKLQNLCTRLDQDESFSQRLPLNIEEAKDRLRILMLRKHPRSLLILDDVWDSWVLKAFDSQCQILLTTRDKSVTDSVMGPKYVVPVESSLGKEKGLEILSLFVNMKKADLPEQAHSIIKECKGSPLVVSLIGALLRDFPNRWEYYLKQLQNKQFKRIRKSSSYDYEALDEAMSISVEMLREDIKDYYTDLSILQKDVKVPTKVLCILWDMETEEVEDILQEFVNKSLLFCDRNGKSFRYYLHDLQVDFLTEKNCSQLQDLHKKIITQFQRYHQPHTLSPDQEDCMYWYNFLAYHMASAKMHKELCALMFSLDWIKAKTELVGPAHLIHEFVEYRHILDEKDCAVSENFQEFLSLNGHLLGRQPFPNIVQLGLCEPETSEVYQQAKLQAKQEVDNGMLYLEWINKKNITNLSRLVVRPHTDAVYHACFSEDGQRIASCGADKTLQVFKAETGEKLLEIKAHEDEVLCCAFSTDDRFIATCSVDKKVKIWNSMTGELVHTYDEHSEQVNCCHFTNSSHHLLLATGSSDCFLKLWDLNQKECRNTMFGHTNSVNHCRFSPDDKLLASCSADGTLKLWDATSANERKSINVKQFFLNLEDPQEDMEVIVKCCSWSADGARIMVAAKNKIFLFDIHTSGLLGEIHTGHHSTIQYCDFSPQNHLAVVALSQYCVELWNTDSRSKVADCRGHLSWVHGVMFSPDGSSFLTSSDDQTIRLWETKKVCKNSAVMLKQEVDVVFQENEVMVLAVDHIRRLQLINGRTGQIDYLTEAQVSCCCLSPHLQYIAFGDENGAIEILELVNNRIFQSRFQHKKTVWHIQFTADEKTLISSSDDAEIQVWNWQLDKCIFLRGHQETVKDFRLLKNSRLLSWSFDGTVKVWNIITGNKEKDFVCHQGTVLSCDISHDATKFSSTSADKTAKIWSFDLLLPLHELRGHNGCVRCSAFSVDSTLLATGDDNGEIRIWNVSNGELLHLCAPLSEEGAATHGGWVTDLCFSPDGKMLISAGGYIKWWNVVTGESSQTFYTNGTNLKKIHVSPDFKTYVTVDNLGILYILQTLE

[7] = NIH-3T3 fibroblast cytotoxicity, dose response, cytotoxicity control, cell-based, fluorescence, Alamar Blue, secondary assay (AID 2327); type: functional;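 further: NIH-3T3 mouse fibroblasts cultured with fluconazole at 8 µg/mL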
[8] = fluconazole-exposed Candida albicans growth modulators – fluorescence, retest, confirmation (AID 2467); type: functional, cell-based
[9] = target: Eukaryotic translation initiation factor 4E (Mus musculus, UniProt P63073); assay: blockers of eIF4G binding by eIF4E – biochemical, TR-FRET, dose response (AID 855); type: functional;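 further: potency for disrupting eIF4E binding to eIF4GI seen as loss of FRET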
HEK293 [10] = assay: EBV LMP1 TES2 canonical NF-kB signalling blockers – cell-based, HEK293, luciferase, cherry-pick, dose response (AID 588343); type: functional; conditions: Homo sapiens
[11] = target: Latent membrane protein 1 (Human herpesvirus 4 (strain B95-8), UniProt P03230); assay: LMP1 TES1 pathway selectivity over dsRED control – imaging, HEK293T, dual-color eGFP/dsRED, cherry-picks, selectivity assay for LMP1 NF-kB inhibitor project, dose response (AID 588398); type: functional, cell-based
Beta-galactosidase = Beta-galactosidase (Escherichia coli, UniProt Q8VNN2); assay: PubChem AID 485352; type: functional
[12] = target: T4, Type-1 angiotensin II receptor (Homo sapiens, UniProt P30556); assay: antagonism of angiotensin II type 1 receptor – cell-based, uHTS hits, selectivity assay for APJ receptor antagonist project, dose response (AID 463214); type: functional;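 further: antagonist potency against angiotensin II stimulated AT1 response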
T4 sequence (P30556 whole entry): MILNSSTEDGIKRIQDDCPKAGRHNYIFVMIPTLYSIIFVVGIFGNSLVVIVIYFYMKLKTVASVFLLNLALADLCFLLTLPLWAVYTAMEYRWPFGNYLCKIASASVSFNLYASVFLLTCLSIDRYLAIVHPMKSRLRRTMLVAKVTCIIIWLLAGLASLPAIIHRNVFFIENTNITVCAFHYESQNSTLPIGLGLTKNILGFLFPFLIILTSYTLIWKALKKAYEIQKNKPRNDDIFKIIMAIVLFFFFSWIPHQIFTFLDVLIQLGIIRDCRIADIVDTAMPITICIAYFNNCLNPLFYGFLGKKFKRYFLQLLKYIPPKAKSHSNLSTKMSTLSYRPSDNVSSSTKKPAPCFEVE

[13] = target: Lysine-specific demethylase 4C (Homo sapiens, UniProt Q9H3R0); assay: inhibition of JMJD2C H3K9me3 demethylation – biochemical, DELFIA europium, cherry-picked samples, dose response (AID 488835); type: functional
[14] = target: T5, Histone-lysine N-methyltransferase NSD2 (Homo sapiens, UniProt O96028); type: biochemical
T5 sequence (O96028 whole entry): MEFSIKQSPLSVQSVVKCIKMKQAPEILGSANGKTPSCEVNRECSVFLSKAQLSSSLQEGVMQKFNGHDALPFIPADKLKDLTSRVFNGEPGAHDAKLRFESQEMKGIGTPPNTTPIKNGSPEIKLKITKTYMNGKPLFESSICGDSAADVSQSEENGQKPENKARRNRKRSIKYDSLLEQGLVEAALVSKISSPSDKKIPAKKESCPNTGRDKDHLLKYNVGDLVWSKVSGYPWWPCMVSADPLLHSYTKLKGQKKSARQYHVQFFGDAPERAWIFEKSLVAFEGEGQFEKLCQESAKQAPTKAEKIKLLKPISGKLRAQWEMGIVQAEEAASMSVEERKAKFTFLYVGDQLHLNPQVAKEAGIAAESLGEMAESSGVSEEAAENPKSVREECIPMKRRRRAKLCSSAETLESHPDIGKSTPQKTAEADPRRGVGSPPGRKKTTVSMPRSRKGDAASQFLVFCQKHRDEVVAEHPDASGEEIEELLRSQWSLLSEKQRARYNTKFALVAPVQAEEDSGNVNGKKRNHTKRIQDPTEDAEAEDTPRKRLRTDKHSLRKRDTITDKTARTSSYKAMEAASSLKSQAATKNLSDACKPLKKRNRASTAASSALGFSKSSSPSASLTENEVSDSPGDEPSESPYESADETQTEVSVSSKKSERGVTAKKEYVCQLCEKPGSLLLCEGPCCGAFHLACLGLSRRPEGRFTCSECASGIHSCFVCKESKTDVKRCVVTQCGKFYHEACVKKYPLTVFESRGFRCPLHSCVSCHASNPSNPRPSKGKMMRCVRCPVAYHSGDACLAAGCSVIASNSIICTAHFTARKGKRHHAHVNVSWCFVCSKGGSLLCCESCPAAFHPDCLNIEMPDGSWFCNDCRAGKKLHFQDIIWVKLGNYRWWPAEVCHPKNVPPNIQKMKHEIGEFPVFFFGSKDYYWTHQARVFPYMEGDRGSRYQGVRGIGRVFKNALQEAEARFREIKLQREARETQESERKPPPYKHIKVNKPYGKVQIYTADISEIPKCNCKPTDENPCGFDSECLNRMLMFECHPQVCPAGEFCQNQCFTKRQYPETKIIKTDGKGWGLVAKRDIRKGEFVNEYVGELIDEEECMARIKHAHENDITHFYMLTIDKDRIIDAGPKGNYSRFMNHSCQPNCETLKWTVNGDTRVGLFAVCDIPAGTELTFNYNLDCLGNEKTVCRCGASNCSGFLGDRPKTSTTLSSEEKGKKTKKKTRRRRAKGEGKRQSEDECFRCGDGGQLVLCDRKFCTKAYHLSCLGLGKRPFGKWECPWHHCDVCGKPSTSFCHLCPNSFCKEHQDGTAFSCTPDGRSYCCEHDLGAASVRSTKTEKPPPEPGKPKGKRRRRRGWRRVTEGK

HEK293 [15] = assay: HEK293T cell viability loss, resazurin readout – resazurin fluorescence, cytotoxicity control for NF-kB activator project, SAR follow-up (AID 493251); type: functional, cell-based; conditions: Homo sapiens
Jurkat = assay: SAR Analysis of small molecule inhibitors of T-cell specific antigen receptor-induced NF-kB activation in a Jurkat cell line using a luminescence assay - Set 2. [Related pubchem assays (depositor defined):AID435003, AID435012, AID465]; type: functional, cell-based; conditions: Homo sapiens
HEK293 [16] = assay: SAR Analysis of small molecule inhibitors of T-cell specific antigen receptor-induced NF-kB activation in a HEK-293T cell line using a luminescence assay - Set 2. [Related pubchem assays (depositor defined):AID435003, AID435012, AID489026]; type: functional, cell-based; conditions: Homo sapiens
[17] = reduction of Shn3 3'UTR-driven luciferase in osteoblasts – cell-based, Clone20 osteoblasts, firefly luciferase, cherry-picked, dose response (AID 624132); type: functional;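 further: firefly luciferase luminescence from reporter carrying the Shn3 3'UTR in osteoblasts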
[18] = loss of viability in HepG2 cells – cell-based, CellTiter-Glo, cherry-picked, cytotoxicity control for Shn3 inhibitor project, dose response (AID 624134); type: functional
[19] = non-specific 3'UTR reporter inhibition in Clone20-Shn3RL – cell-based, Renilla luciferase, cherry-picked, counter-screen for Shn3 inhibitor project, dose response (AID 624133); type: functional

Sequence of Latent membrane protein 1 (P03230 whole entry): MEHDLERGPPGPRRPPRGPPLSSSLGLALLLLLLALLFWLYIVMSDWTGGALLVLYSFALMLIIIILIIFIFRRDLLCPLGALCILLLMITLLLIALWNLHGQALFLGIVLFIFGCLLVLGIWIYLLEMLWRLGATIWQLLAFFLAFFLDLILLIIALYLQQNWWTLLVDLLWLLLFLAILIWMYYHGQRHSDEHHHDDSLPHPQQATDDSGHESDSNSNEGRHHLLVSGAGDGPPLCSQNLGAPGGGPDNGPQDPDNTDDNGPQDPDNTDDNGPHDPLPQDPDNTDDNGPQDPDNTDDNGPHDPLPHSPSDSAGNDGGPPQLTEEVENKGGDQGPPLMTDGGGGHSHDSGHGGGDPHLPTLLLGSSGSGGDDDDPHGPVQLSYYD
Sequence of Eukaryotic translation initiation factor 4E (P63073 whole entry): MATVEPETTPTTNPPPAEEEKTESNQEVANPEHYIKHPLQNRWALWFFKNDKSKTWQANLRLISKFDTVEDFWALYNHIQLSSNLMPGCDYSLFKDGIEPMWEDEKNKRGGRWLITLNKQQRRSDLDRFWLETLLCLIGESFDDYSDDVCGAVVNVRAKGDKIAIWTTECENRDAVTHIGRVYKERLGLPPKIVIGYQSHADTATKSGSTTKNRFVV
Sequence of Lysine-specific demethylase 4C (Q9H3R0 whole entry): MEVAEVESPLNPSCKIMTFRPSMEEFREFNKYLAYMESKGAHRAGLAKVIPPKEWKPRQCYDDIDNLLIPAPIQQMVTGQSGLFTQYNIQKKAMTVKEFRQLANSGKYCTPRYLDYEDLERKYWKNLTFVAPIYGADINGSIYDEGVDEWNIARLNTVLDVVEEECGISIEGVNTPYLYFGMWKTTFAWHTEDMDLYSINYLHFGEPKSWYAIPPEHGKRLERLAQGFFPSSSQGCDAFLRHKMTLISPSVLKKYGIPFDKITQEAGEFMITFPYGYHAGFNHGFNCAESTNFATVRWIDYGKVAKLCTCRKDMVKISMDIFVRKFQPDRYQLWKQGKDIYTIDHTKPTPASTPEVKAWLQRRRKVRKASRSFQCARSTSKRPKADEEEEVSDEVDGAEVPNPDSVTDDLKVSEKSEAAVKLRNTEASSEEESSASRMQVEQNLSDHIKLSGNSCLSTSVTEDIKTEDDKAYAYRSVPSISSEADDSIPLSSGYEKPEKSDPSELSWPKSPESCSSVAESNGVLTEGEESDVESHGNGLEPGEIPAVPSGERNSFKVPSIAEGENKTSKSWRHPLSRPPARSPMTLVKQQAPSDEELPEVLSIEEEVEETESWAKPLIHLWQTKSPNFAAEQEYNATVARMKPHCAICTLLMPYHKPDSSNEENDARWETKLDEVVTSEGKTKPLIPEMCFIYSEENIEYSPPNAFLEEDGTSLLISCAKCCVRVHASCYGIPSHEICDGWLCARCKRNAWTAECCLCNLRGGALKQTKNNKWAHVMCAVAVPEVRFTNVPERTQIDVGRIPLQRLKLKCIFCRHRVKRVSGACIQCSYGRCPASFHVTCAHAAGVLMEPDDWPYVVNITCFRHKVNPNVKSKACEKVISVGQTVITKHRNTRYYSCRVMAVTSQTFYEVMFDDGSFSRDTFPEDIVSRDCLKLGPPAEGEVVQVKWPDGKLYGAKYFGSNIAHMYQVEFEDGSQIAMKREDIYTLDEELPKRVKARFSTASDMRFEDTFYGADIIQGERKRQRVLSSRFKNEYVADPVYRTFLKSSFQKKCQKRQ
Sequence of Beta-galactosidase (Q8VNN2 whole entry): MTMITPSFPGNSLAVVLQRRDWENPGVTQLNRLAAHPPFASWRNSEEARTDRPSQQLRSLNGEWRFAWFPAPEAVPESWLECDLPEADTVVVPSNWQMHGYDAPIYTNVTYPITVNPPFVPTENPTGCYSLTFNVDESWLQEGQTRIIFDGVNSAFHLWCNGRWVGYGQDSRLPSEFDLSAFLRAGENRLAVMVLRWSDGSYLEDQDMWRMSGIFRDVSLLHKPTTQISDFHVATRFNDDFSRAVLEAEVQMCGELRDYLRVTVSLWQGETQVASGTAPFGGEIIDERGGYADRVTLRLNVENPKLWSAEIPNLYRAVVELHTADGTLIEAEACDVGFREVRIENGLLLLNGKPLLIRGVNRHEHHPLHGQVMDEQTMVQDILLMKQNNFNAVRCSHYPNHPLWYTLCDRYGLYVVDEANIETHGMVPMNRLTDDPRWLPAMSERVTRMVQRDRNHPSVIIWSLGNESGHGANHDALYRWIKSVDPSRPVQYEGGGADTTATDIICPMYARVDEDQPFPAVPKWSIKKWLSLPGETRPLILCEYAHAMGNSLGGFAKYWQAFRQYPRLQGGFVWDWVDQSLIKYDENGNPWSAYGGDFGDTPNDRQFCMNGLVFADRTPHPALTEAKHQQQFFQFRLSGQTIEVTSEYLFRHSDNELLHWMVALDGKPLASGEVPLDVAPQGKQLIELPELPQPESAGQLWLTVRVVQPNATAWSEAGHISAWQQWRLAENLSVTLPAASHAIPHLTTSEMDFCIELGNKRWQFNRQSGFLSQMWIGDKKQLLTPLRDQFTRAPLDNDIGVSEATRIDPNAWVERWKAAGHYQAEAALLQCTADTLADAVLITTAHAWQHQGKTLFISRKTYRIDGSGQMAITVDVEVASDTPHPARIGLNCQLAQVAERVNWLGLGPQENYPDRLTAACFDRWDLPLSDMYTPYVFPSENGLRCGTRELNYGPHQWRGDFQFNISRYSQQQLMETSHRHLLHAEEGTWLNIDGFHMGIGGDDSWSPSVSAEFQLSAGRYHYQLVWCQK

Structure (SMILES): N#Cc1cc2ccccc2nc1SCC(=O)Nc1ccccc1N1CCOCC1
- EC50 [1]: 5.15 µM (active)
- EC50 [2]: 17.5 µM (active)
- CC50 (MEF): > 99 µM (inactive)
- EC50 [3]: > 99 µM (inactive)
- EC50 [4]: > 99 µM (inactive)

Structure (SMILES): NC(=O)C1CCN(C2=C(NS(=O)(=O)c3ccc(Br)cc3)C(=O)c3ccccc3C2=O)CC1
- AC50 [5]: 11.9 µM (active)
- IC50 [6]: 16.9 µM (active)

Structure (SMILES): COc1cc(C(=O)Oc2cc(N)n(S(=O)(=O)c3ccc(F)cc3)n2)cc(OC)c1OC
- EC50 [1]: 3.48 µM (active)
- EC50 [2]: 14.8 µM (active)
- CC50 (MEF): 85.3 µM (active)
- EC50 [3]: > 99 µM (inactive)
- EC50 [4]: > 99 µM (inactive)

Structure (SMILES): Cn1cccc1-c1cc(C(=O)N2CCc3c([nH]c4ccccc34)C2c2ccccn2)[nH]n1 (stereo not given)
- EC50 [7]: 21.3 µM (active)
- EC50 [8]: 2.76 µM (active)
- IC50 [9]: 50 µM (inactive)
- AC50 (HEK293 [10]): 25.8 µM (active)
- AC50 [11]: 21.6 µM (active)

Structure (SMILES): C=CCN(CC=C)Cc1c(O)ccc2c1oc(=O)c1ccccc12
- EC50 (Beta-galactosidase): > 40 µM (inactive)
- IC50 [12]: > 40 µM (not active)
- AC50 [13]: 0.48 µM (active)
- IC50 [6]: 60.3 µM (active)
- AC50 [14]: 4.02 µM (active)

Structure (SMILES): CCCCC(=O)NC(c1ccc(OC)cc1)c1ccc2cccnc2c1O (stereo not given)
- AC50 (HEK293 [10]): 15.8 µM (active)
- IC50 (HEK293 [15]): 21.7 µM (inactive)
- AC50 [11]: 11.6 µM (active)
- IC50 (Jurkat): 3.22 µM (active)
- IC50 (HEK293 [16]): 5.25 µM (active)
- AC50 [17]: 2.28 µM (active)
- AC50 [18]: 5.14 µM (active)
- AC50 [19]: 8.8 µM (active)
